From patent US10160762B2, “6-alkyl dihydropyrazolopyrimidinone compounds as PDE2 inhibitors” (Merck Sharp & Dohme Corp., priority 2015, dated 2018)
Like-named read-outs stand apart in the source and are kept apart here.

Target: T1, human PDE2A1 (Homo sapiens, UniProt O00408)
T1 construct: GST; purchased BPS Bioscience (San Diego, Calif.) 60020; host or cells: insect cells
Assay: IMAP FP PDE assay, human PDE2A1
Format: biochemical
In short: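 GST-tagged human PDE2A1 from insect cells; substrate 50 nM FAM-cAMP containing 1000 nM cGMP in Tris pH 7.2/MgCl2/DTT buffer, enzyme giving 20% conversion. 60 min at room temperature, IMAP binding reagent, fluorescence polarization read. Apparent Ki from FP readings using apparent KM 10,000 nM; ten-point 3-fold titrations.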

[1] = Lab B, read-out: Human PDE2 Ki (nM) Lab B
[2] = Lab A, read-out: Human PDE2 Ki (nM) Lab A

T1 sequence (O00408 1-920 isoform O00408-2): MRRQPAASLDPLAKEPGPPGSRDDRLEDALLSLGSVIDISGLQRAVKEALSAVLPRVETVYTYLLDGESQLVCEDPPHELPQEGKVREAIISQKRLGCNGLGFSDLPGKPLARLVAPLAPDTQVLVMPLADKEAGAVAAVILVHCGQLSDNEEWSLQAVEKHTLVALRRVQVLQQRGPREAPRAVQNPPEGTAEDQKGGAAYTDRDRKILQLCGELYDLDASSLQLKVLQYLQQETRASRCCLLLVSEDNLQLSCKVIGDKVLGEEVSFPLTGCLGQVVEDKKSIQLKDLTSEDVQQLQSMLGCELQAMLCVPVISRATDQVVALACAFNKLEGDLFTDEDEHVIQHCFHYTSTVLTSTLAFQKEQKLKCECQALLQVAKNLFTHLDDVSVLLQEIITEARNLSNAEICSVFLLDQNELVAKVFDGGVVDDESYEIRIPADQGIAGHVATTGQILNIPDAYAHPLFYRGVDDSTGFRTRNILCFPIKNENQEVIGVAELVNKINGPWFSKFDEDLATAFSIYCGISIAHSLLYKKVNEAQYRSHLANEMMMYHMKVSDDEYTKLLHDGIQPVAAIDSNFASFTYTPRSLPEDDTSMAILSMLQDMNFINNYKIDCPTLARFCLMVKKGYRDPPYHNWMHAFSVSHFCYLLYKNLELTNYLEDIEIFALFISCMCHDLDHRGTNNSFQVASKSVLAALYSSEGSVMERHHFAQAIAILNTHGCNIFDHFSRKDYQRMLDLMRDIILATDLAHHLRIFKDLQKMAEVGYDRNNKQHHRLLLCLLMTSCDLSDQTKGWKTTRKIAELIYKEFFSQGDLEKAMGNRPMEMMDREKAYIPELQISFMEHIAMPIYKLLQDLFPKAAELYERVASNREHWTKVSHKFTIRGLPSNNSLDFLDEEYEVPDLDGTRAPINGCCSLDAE

SMILES | Ki [1] | Ki [2]
Cc1nc2c(c(CO)nn2C(c2ccc(OC(F)(F)F)c(F)c2)C(C)C)c(=O)[nH]1 (single isomer, unassigned) [Example 127, (S)- or (R)-1-(1-(3-Fluoro-4-(trifluoromethoxy)phenyl)-2-methylpropyl)-3-(hydroxymethyl)-6-methyl-1H-pyrazolo[3,4-d]pyrimidin-4(5H)-one] | 0.98 nM | 
Cc1nn(C(C)c2ccc(C(F)(F)F)cc2)c2nc(C3CCC3)[nH]c(=O)c12 (stereo not shown) [Example 39, 6-Cyclobutyl-3-methyl-1-{1-[4-(trifluoromethyl)phenyl]ethyl}-1,5-dihydro-4H-pyrazolo[3,4-d]pyrimidin-4-one] |  | 84 nM
Cc1nc2c(c(CO)nn2C(C)(C)c2ccc(C(F)(F)F)cc2)c(=O)[nH]1 [Example 9, 3-(Hydroxymethyl)-6-methyl-1-{1-methyl-1-[4-(trifluoromethyl)phenyl]ethyl}-1,5-dihydro-4H-pyrazolo[3,4-d]pyrimidin-4-one] | 60 nM | 27 nM
Cc1nc2c(c(CF)nn2C(c2ccc(C(F)(F)F)cc2)C(C)C)c(=O)[nH]1 (single isomer, unassigned) [Example 213, (S)- or (R)-3-(Fluoromethyl)-6-methyl-1-(2-methyl-1-(4-(trifluoromethyl)phenyl)propyl)-1H-pyrazolo[3,4-d]pyrimidin-4(5H)-one] | 0.19 nM | 
COc1ccc(Cc2nc3c(c(C)nn3C(C)c3ccc(C(F)(F)F)cc3)c(=O)[nH]2)cc1OC (stereo not shown) [Example 44, 6-(3,4-Dimethoxybenzyl)-3-methyl-1-{1-[4-(trifluoromethyl)phenyl]ethyl}-1,5-dihydro-4H-pyrazolo[3,4-d]pyrimidin-4-one] |  | 2.1 nM
Cc1nc2c(c(CF)nn2C(C)c2ccc(OC(F)(F)F)cc2)c(=O)[nH]1 (single isomer, unassigned) [Example 206, (R)- or (S)-3-(Fluoromethyl)-6-methyl-1-(1-(4-(trifluoro-methoxy-)phenyl)ethyl)-1H-pyrazolo[3,4-d]pyrimidin-4(5H)-one] | 83 nM | 
Cc1nc2c(c(CO)nn2C(C)c2ccc(OC(F)(F)F)c(F)c2)c(=O)[nH]1 (single isomer, unassigned) [Example 10, (R)- or (S)-1-(1-(3-Fluoro-4-(trifluoromethoxy)phenyl)ethyl)-3-(hydroxymethyl)-6-methyl-1H-pyrazolo[3,4-d]pyrimidin-4(5H)-one] | 50 nM | 
Cc1nc2c(c(CF)nn2C(c2ccc(C(F)(F)F)cc2)C(C)C)c(=O)[nH]1 (single isomer, unassigned) [Example 212, (R)- or (S)-3-(Fluoromethyl)-6-methyl-1-(2-methyl-1-(4-(trifluoromethyl)phenyl)propyl)-1H-pyrazolo[3,4-d]pyrimidin-4(5H)-one] | 43 nM | 
Cc1nc2c(c(CF)nn2C(c2ccc(C(F)(F)F)cc2)C2CC2)c(=O)[nH]1 (stereo not shown) [Example 231, 1-(cyclopropyl(4-(trifluoromethyl)phenyl)methyl)-3-(fluoromethyl)-6-methyl-1H-pyrazolo[3,4-d]pyrimidin-4(5H)-one] | 0.97 nM | 0.39 nM
Cc1nc2c(c(CO)nn2C(C)c2ccc(C3CC3)cc2)c(=O)[nH]1 (stereo not shown) [Example 3, 1-(1-(4-Cyclopropylphenl)ethyl)-3-(hydroxymethyl)-6-methyl-1H-pyrazolo[3,4-d]pyrimidin-4(5H)-one] | 3.7 nM | 
Cc1nc2c(c(CO)nn2C(C)c2ccc(C(F)(F)F)cc2)c(=O)[nH]1 (single isomer, unassigned) [Example 26, (R)- or (S)-3-(Hydroxymethyl)-6-methyl-1-{1-[4-(trifluoromethyl)phenyl]ethyl}-1,5-dihydro-4H-pyrazolo[3,4-d]pyrimidin-4-one] | 236 nM | 130 nM
CCOCCc1nc2c(c(C)nn2C(C)c2ccc(C(F)(F)F)cc2)c(=O)[nH]1 (stereo not shown) [Example 35, 6-(2-Ethoxyethyl)-3-methyl-1-(1-(4-(trifluoromethyl)phenyl)ethyl)-1H-pyrazolo[3,4-d]pyrimidin-4(5H)-one] |  | 105 nM
COc1ccc(Cc2nc3c(c(CF)nn3C(C)c3ccc(C(F)(F)F)cc3)c(=O)[nH]2)cc1OC (single isomer, unassigned) [Example 222, (R)- or (S)-6-(3,4-Dimethoxybenzyl)-3-(fluoromethyl)-1-(1-(4-(trifluoromethyl)phenyl)ethyl)-1,5-dihydro-4H-pyrazolo[3,4-d]pyrimidin-4-one] | 0.34 nM | < 5.1 nM
Cc1nn(C(C)c2ccc(C(F)(F)F)cc2)c2nc(C3CC3)[nH]c(=O)c12 (stereo not shown) [Example 42, 6-Cyclopropyl-3-methyl-1-{1-[4-(trifluoromethyl)phenyl]ethyl}-1,5-dihydro-4H-pyrazolo[3,4-d]pyrimidin-4-one] |  | 40 nM
Cc1nc2c(c(CF)nn2C(C)c2ccc(OC(F)(F)F)cc2)c(=O)[nH]1 (single isomer, unassigned) [Example 207, (S)- or (R)-3-(Fluoromethyl)-6-methyl-1-(1-(4-(trifluoromethoxy)phenyl)ethyl)-1H-pyrazolo[3,4-d]pyrimidin-4(5H)-one] | 1.1 nM | 
Cc1nc2c(c(CO)nn2C(c2ccc(C(F)(F)F)c(F)c2)C(C)(C)C)c(=O)[nH]1 (single isomer, unassigned) [Example 129, (S)- or (R)-1-(1-(3-Fluoro-4-(trifluoromethyl)phenyl)-2,2-dimethylpropyl)-3-(hydroxyl-methyl)-6-methyl-1H-pyrazolo-[3,4-d]pyrimidin-4(5H)-one] | 8.9 nM | 
Cc1nc2c(c(CO)nn2C(c2ccc(C(F)(F)F)cc2)C2CC2)c(=O)[nH]1 (stereo not shown) [Example 28, 1-(Cyclopropyl(4-(trifluoromethyl)phenyl)methyl)-3-(hydroxymethyl)-6-methyl-1H-pyrazolo[3,4-d]pyrimidin-4(5H)-one] | 1.6 nM | 
Cc1nc2c(c(CO)nn2[C@H](c2ccc(C(C)(C)C)cc2)C(C)C)c(=O)[nH]1 [Example 159, (S)-1-(1-(4-tert-Butylphenyl)-2-methylpropyl)-3-(hydroxymethyl)-6-methyl-1H-pyrazolo[3,4-d]pyrimidin-4(5H)-one] | 2 nM | 
CCC(CCCc1ccccc1)n1nc(C)c2c(=O)[nH]c(C)nc21 (stereo not shown) [Example 338, 1-(1-ethyl-4-phenylbutyl)-3,6-dimethyl-1,5-dihydro-4H-pyrazolo[3,4-d]pyrimidin-4-one] |  | 73 nM
COc1ccc(C(=O)c2nc3c(c(C(F)F)nn3C(C)c3ccc(C(F)(F)F)cc3)c(=O)[nH]2)cc1OC (stereo not shown) [Example 198, 3-(Difluoromethyl)-6-(3,4-dimethoxybenzoyl)-1-(1-(4-(trifluoromethyl)phenyl)ethyl)-1H-pyrazolo[3,4-d]pyrimidin-4(5H)-one] | 21 nM | 
COc1ccc(Cc2nc3c(c(C(F)F)nn3C(C)c3ccc(C(F)(F)F)cc3)c(=O)[nH]2)cc1OC (single isomer, unassigned) [Example 196] | 61 nM | 
Cc1nn(C(C)c2ccc(C(F)(F)F)cc2)c2nc(C(C)C)[nH]c(=O)c12 (stereo not shown) [Example 43, 3-Methyl-6-(1-methylethyl)-1-{1-[4-(trifluoromethyl)phenyl]ethyl}-1,5-dihydro-4H-pyrazolo[3,4-d]pyrimidin-4-one] |  | 132 nM
Cc1nc2c(c(CO)nn2C(c2ccc(C(F)(F)F)cc2)C(C)C)c(=O)[nH]1 (stereo not shown) [Example 5, 3-(Hydroxymethyl)-6-methyl-1-(2-methyl-1-(4-(trifluoromethyl)phenyl)propyl)-1H-pyrazolo[3,4-d]pyrimidin-4(5H)-one] | 0.74 nM | 0.56 nM
